Laboratory results taken from US20240091328A1, “FORMULATIONS AND METHODS FOR MHC-I RESTRICTED EPITOPE IMMUNIZATION” (The Research Foundation for The State University of New York, priority 2021, published 2024).

Tested on: IFN-γ
Assay: In vivo peptide micro-library screening, IFN-γ ELISA of re-stimulated splenocytes relative to A5
Set-up: species or system mice
Details: rank among 100 micro-library peptides; IFN-γ on re-stimulation relative to A5; 5 peptides plus A5 with CPQ
Method: Mice were immunized with 5 library peptides at a time, along with the A5 peptide, with all peptides combined and admixed with CPQ. After two intramuscular injections, splenocytes were collected, and then re-stimulated with each of the synthetic micro-library peptides, individually. Production of IFN-γ was measured and peptide immunogenicity was determined relative to the A5 peptide, which served as in internal control that could induce strong Ag-specific CD8^+ T cell responses.
For Ag screening, multivalent vaccine composed of peptide with the same MHC-I haplotypes (H-2L^d, H-2D^d, or H-2K^d) and the internal A5 peptide were admixed with CPQ. After immunization, only ˜10% of MHC-I binding peptides induced T cells in splenocytes that produced IFN-γ with peptide re-stimulation, and none were nearly as effective as A5 (FIG. 16B). The most highly immunogenic peptides only produced about a quarter of the level of IFN-γ relative to A5. […] It is also feasible that immunization with higher antigen doses of single individual peptides could have induced stronger immunogenic responses, although this would decrease the in vivo peptide micro-library screening throughput.
IFN-γ ELISA: 2.5×10^5 splenocytes were seeded in a 96 wells plate and stimulated with 10 μg/mL antigens for 72 hr. 50 μL of supernatant was collected from each well and subjected to Interferon gamma ELISA (Thermofisher; catalog: BMS606TEN) according to manufacturer protocol.

Row | Substance | Experimental rank
1 | H6-SYIMAICGM-ERR [CT67] | 36
2 | H6-PTPRRFSPP-ERR (HHHHHHPTPRRFSPPERR; CT52) | 24
3 | H6-FPPQNMFEF-ERR [CT14] (HHHHHHFPPQNMFEFERR; CT14) | 98
4 | H6-RGEYEDPYY-ERR (HHHHHHRGEYEDPYYERR; CT56) | 35
5 | H6-IYLESVAIM-ERR (HHHHHHIYLESVAIMERR; CT78) | 50
6 | H6-LNYPHITNL-ERR (HHHHHHLNYPHITNLERR; CT81) | 54
7 | H6-RPIKGPRNI-ERR (HHHHHHRPIKGPRNIERR; CT18) | 47
8 | H6-GPPGGFQEF-ERR [CT99] (HHHHHHGPPGGFQEFERR; CT99) | 53
9 | H6-TYLQPAQAQ-ERR (HHHHHHTYLQPAQAQERR; CT75) | 12
10 | H6-SYTSYIMAI-ERR (HHHHHHSYTSYIMAIERR; CT10) | 69
11 | H6-SPKALAHNG-ERR (HHHHHHSPKALAHNGERR; CT37*) | 1
12 | H6-CYVTYKGEI-ERR (HHHHHHCYVTYKGEIERR; CT9) | 89
13 | H6-HYLNDGDAI-ERR (HHHHHHHYLNDGDAIERR; H6 and ERR flanks; CT25) | 80
14 | H6-CQIAMVHYI-ERR (HHHHHHCQIAMVHYIERR; CT61) | 10
15 | H6-VYFTINVNL-ERR (HHHHHHVYFTINVNLERR; CT32) | 43
16 | H6-PYFRLEHYL-ERR (HHHHHHPYFRLEHYLERR; CT27) | 87
17 | H6-NALSSMGAL-ERR (HHHHHHNALSSMGALERR; CT40*) | 6
18 | H6-DPQFAENYV-ERR (HHHHHHDPQFAENYVERR; CT94) | 55
19 | H6-YYESDEFTV-ERR (HHHHHHYYESDEFTVERR; CT65) | 17
20 | H6-SYATYLQPA-ERR (HHHHHHSYATYLQPAERR; CT63) | 19
21 | H6-DPFATPLSM-ERR (HHHHHHDPFATPLSMERR; CT21) | 83
22 | H6-SGPIGPPEI-ERR (HHHHHHSGPIGPPEIERR; CT48) | 70
23 | H6-MLARKQFDL-ERR (HHHHHHMLARKQFDLERR; CT86) | 60
24 | H6-PYLTALDDL-ERR (HHHHHHPYLTALDDLERR; CT28) | 82
25 | H6-MPQLFMVSK-ERR (HHHHHHMPQLFMVSKERR; CT100) | 16

Row | Substance | Experimental rank
26 | H6-LVPNRFSRL-ERR (HHHHHHLVPNRFSRLERR; CT45) | 13
27 | H6-FPSESEFFK-ERR (HHHHHHFPSESEFFKERR; CT83) | 26
28 | H6-HHTMMVQAI-ERR (HHHHHHHHTMMVQAIERR; CT24) | 86
29 | H6-TPHVLWSWG-ERR (HHHHHHTPHVLWSWGERR; CT97) | 4
30 | H6-YVYEIYMTF-ERR (HHHHHHYVYEIYMTFERR; CT98) | 9
31 | H6-DSPNRRFTE-ERR (HHHHHHDSPNRRFTEERR; CT60) | 20
32 | H6-KPFTICKYY-ERR (HHHHHHKPFTICKYYERR; CT88) | 34
33 | H6-SFQPTADEL-ERR (HHHHHHSFQPTADELERR; CT62) | 11
34 | H6-YGKGVNFYL-ERR (HHHHHHYGKGVNFYLERR; CT50) | 68
35 | H6-TY AIALINV-ERR (HHHHHHTYAIALINVERR; CT70) | 29
36 | H6-IPIFHILNT-ERR (HHHHHHIPIFHILNTERR; CT85) | 8
37 | H6-TPPSIFSTQ-ERR (HHHHHHTPPSIFSTQERR; CT49) | 73
38 | H6-PGGFQEFNF-ERR (HHHHHHPGGFQEFNFERR; CT89) | 25
39 | H6-FFMKMASKF-ERR (HHHHHHFFMKMASKFERR; CT73) | 78
40 | H6-SYIKKLKEL-ERR (HHHHHHSYIKKLKELERR; CT29) | 90
41 | H6-FPPQNMFEF-ERR [CT43] (HHHHHHFPPQNMFEFERR; CT43) | 15
42 | H6-LGYRYWTGI-ERR (HHHHHHLGYRYWTGIERR; CT92) | 41
43 | H6-RGGPKKCAL-ERR (HHHHHHRGGPKKCALERR; CT53) | 32
44 | H6-GPPGGFQEF-ERR [CT4] (HHHHHHGPPGGFQEFERR; CT4) | 63
45 | H6-SYQAALAEN-ERR (HHHHHHSYQAALAENERR; CT77) | 39
46 | H6-RTPHVLWSW-ERR (HHHHHHRTPHVLWSWERR; CT41) | 40
47 | H6-KPYESYTEQ-ERR (HHHHHHKPYESYTEQERR; CT87) | 75
48 | H6-FYTSYLRRL-ERR (HHHHHHFYTSYLRRLERR; CT74) | 76
49 | H6-SYETLKKSL-ERR (HHHHHHSYETLKKSLERR; CT7) | 94
50 | H6-PGPIKCVPI-ERR (HHHHHHPGPIKCVPIERR; CT3) | 22

Row | Substance | Experimental rank
51 | H6-GYEAVVRLL-ERR (HHHHHHGYEAVVRLLERR; CT23) | 77
52 | H6-TALPVGFSL-ERR (HHHHHHTALPVGFSLERR; CT90) | 79
53 | H6-SRLQSLTLI-ERR (HHHHHHSRLQSLTLIERR; CT72) | 7
54 | H6-KLLASALST-ERR (HHHHHHKLLASALSTERR; CT39*) | 5
55 | H6-SEGNSSHTI-ERR (HHHHHHSEGNSSHTIERR; CT81) [CT80] | 31
56 | H6-RHNTMLKAM-ERR (HHHHHHRHNTMLKAMERR; CT66) | 61
57 | H6-EGPHGQPVS-ERR (HHHHHHEGPHGQPVSERR; CT54) | 57
58 | H6-RKIKGPYWL-ERR (HHHHHHRKIKGPYWLERR; CT91) | 52
59 | H6-KYYAVNFSM-ERR [CT8] (HHHHHHKYYAVNFSMERR; CT8) | 88
60 | H6-VVEANWTML-ERR (HHHHHHVVEANWTMLERR; CT96) | 2
61 | H6-VYFVAGVRV-ERR (HHHHHHVYFVAGVRVERR; H6 and ERR flanks; CT71) | 3
62 | H6-LLYNAVVWL-ERR (HHHHHHLLYNAVVWLERR; CT93) | 27
63 | H6-IPDEAMVKL-ERR (HHHHHHIPDEAMVKLERR; CT16) | 33
64 | H6-AYVNATGEV-ERR (HHHHHHAYVNATGEVERR; CT13) | 95
65 | H6-EPQIAMDDM-ERR (HHHHHHEPQIAMDDMERR; CT22) | 74
66 | H6-TGRRRTATK-ERR (HHHHHHTGRRRTATKERR; CT59) | 30
67 | H6-SGPSYATYL-ERR (HHHHHHSGPSYATYLERR; CT1) | 62
68 | H6-GFPSPLGGI-ERR (HHHHHHGFPSPLGGIERR; CT58) | 42
69 | H6-QFPSESEFF-ERR (HHHHHHQFPSESEFFERR; CT5) | 18
70 | H6-GPPPHSAPC-ERR (HHHHHHGPPPHSAPCERR; H6 and ERR flanks; CT47) | 71
71 | H6-EPQVEPLDF-ERR (HHHHHHEPQVEPLDFERR; CT15) | 81
72 | H6-RYWTGIGVL-ERR (HHHHHHRYWTGIGVLERR; CT11) | 92
73 | H6-VVLETFYDL-ERR (HHHHHHVVLETFYDLERR; CT19) | 56
74 | H6-IYSRTTDVL-ERR (HHHHHHIYSRTTDVLERR; CT76) | 64
75 | H6-KYYAVNFSM-ERR [CT95] (HHHHHHKYYAVNFSMERR; CT95) | 59
